Results reported in US20260070921A1, “COMPOUND, ENDOPLASMIC RETICULUM STRESS INHIBITOR, PHARMACEUTICAL PRODUCT, OPHTHALMIC AGENT, EYE DROPS, COMPOSITION, AND METHOD FOR PRODUCING COMPOUND” (KYOTO UNIVERSITY, priority 2022, published 2026).

Experiments:
C57BL6J mice = assay: Lens-induced myopia in mice, eye drops; type: in vivo; conditions: −30 D lens 3 weeks, eye drop once a day
Procedure: (§1) A −30 diopter (unit of refractive index: D) lens was attached to the right eye of 3-week-old male C57BL6J mice, while only a lens frame was attached to the left eye, which served as a control eye. The lenses were worn for three weeks, and the refractive index and axial length of eyes were measured before and after attachment of the lenses. Concurrently with myopia induction, an eye drop, which is a 0.025 solution of X441A in PBS, was administered by instillation once a day every day. PBS was administered by eye drop to the control group (group administered with PBS). After 3 weeks of myopia induction and eye drop administration, the eyeballs were enucleated from the mice, and the sclera was isolated. Then, western blotting was performed to analyze the expression levels of p62, Atg5, and Atg12 in each group.

[1] = Confocal microscopy of Nile red-stained assemblies; type: physicochemical; conditions: cell culture medium, prolonged incubation (>5 hr)
Procedure: Doping with the environmentally sensitive dyes, Nile red and 9-(2,2-dicyanovinyl)julolidine (DCVJ), enabled detection of assembly formation by fluorescence spectroscopy and confocal microscopy. The relative amount of self-organization of compound 1 was quantified using DCVJ to form a DMEM-normalized dose-organization curve (FIG. 24). Fitting with a sigmoid curve gave an apparent half-maximal assembly concentration (AC50) of 29.7 μM for the molecules of compound 1. […] In confocal microscopy, assemblies of compound 1 stained with Nile red were readily detectable in PBS (pH of 7.4). In the cell culture medium, assemblies of compound 1 stained with Nile red were initially not visible due to the small particle size, but prolonged incubation (>5 hr) led to the formation of larger detectable assemblies (>1 μm in diameter).

[2] = test system: pIRE1/IRE and p-eIF2/eIF2; assay: Endoplasmic reticulum stress pathway activation in myopic sclera; type: in vivo, mice; conditions: eye drop 3 weeks
From the text: Thus, the attachment of a minus lens may enhance autophagy, and autophagy was not shown to be complete in the control group. […] This is thought to be the mechanism by which myopia progression is inhibited.

p62 = assay: Western blotting of sclera after myopia induction, p62; type: in vivo, mice; conditions: eye drop 3 weeks
Procedure: as §1
After 3 weeks of myopia induction and eye drop administration, the eyeballs were enucleated from the mice, and the sclera was isolated. Then, western blotting was performed to analyze the expression levels of p62, Atg5, and Atg12 in the group administered with X441A and the group administered with PBS.

[3] = Reversibility of self-assembly on dilution (DCVJ fluorescence); type: physicochemical; conditions: dilution of preformed assemblies
Procedure: Compound 1 (100 μM) was incubated in DMEM (10% FBS, 0.5, DMSO) at 25° C. for 1 hour to allow it to form self-assemblies. A solution of pre-formed assemblies of compound 1 was diluted in various ratios with DMEM (10% FBS, 0.5% DMSO). All samples contained 1.0 μM DCVJ, an environmentally sensitive dye, to quantify the amount of self-assembly of compound 1 by fluorescence. If the self-assembly is irreversible (upper graph in the frame), the fluorescence signal is linear with respect to the amount of the compound. […] In the two graphs within the frame, the vertical axis represents fluorescence, and the horizontal axis represents concentration. […] A time-dependent decrease in fluorescence at 25 μM (as a monomer of compound 1) was also observed. Error bars represent s.d. (n=3).

NS(=O)(=O)c1ccc(Nc2ccn3c(n2)nc(=O)c2sc4cc(F)ccc4c23)cc1 [compound 1]
Axial length elongation of eyes (C57BL6J mice): such changes were not observed
Myopic shift in refractive index (C57BL6J mice): such changes were not observed
Diameter of detectable assemblies [1]: > 1 μm
Activation of the endoplasmic reticulum stress pathway caused by myopia induction [2]: did not occur
Expression level of p62 (p62): decreased
Reversibility of self-assembly [3]: disintegration of the particles
